# Literature values in US20040208942A1, “Alpha lipoic acid based food supplement for increasing lean muscle mass and strength” (priority 2000, published 2004).
structure (smiles),measurement,setting,value
O=C(O)CCCCC1CCSS1 (stereo not drawn) [α lipoic acid],body's utilization of blood sugar,type II diabetes,significantly increase
same,increase of the metabolic clearance rate of glucose,type II diabetics,50%
